Test results reported in publication PMC4559881 (Molecular Neurodegeneration, 2015).

What was measured:
[1] = Octanol/water distribution coefficient; format: physicochemical; details: derived from apparent permeability across an artificial liquid membrane
Protocol: The octanol/water distribution coefficient was derived from the apparent permeability across an artificial liquid membrane. The PAMPA assay was done as described. MDCK cells overexpressing human p-glycoprotein (MDR1-MDCK cells, obtained from Prof. A. Berns, Netherlands Cancer Institute) were grown on HTS Multiwell plates, 1 μm pore size (Becton Dickinson). After formation of a tight monolayer, NB-360 was applied to either the upper or the lower chamber. After one hour, liquid was removed from the upper and lower chambers and analyzed by HPLC-MS. Apical-to-basolateral and basolateral-to-apical transport rates were calculated.

[2] = Dog PK/PD study: NB-360 exposure in blood and CSF; format: in vivo; details: male, Beagle, blood, po, 0.5 mg/kg p.o.
Protocol: Blood and CSF were sampled before treatment (at -24 and at -1 h) and at various time points after oral dosing, up to 168 h.
Brain samples were homogenized with 2 mM KH2PO4 buffer (approx. 1/2, w/v). […] The LLOQ ranged between 0.4 and 2 ng/mL in blood and 1.2 ng/g and 6 ng/g in brain.
Rat studies used male Charles River Sprague-Dawley rats of approx. 300 g body weight. Female transgenic APP51/16 mice (C57BL/6 background strain) were bred in-house. APP51/16 mice express human wild-type APP751 under the control of a Thy-1 expression cassette in brain neurons, and are characterized by mostly cortical, but few vascular amyloid-β deposits. […] Dosing was per os in a dose volume of 10 ml/kg for mice and 5 ml/kg for rats. […] Rodents were deeply anesthetized for CSF sampling from the cisterna magna, accessed through the exposed atlanto-occipital membrane. CSF was harvested into protein lo-bind Eppendorf tubes and frozen on dry ice. Animals were decapitated while anesthetized and blood and brain samples collected. Brains were briefly rinsed in PBS, quickly wet-dissected and samples frozen on a metal plate precooled on dry ice. All samples were stored at -80 ° C until analysis. The dog study was carried out at Charles River Laboratories, Canada. Male dogs were used with n = 4 per group. A cannula with an access port was implanted under anesthesia, to allow serial CSF sampling from the lateral ventricle. […]

[3] = Dissociation constant (pKa); format: physicochemical
[4] = Pharmacokinetics after i.v. and oral application, beagle dog
Protocol: Pharmacokinetic studies used male Sprague Dawley rats, C57BL6 mice and Beagle dogs, obtained from Charles River (France, rodents) and Marshall (Italy, dogs). […] Blood was collected i.v., by sublingual bleeding or at sacrifice whereas a serial blood sampling allowed obtaining individual PK profiles in these species. Blood samples were taken between 5 min (intravenous) and 15 min (oral) up to 24 h (mice), 48 h (rat) and 408 h (dog).
The absorption and disposition parameters were estimated by a non-compartmental analysis of the mean blood concentration (n = 3 mice) or individual concentration (rats, dogs) versus time profile after oral and intravenous administration.

[5] = system: SweAPP CHO cells; assay: Aβ40 release from Swedish human APP751 CHO cells; details: Cricetulus griseus, 24 h, read-out: IC50 Aβ40 release
[6] = system: APP51/16 transgenic mice; assay: Chronic 6-week treatment of APP51/16 mice: APP metabolites, Aβ deposition and neuroinflammation; format: in vivo, mouse; details: for CSF Aβ40 reduction / CSF Aβ42 reduction: 100 μmol/kg/d 6 weeks
Protocol: Frozen rodent forebrains were homogenized in 9 volumes of ice-cold Tris-buffered saline (pH 7.4) containing Complete protease inhibitor cocktail (Roche Diagnostics, Penzberg, Germany) using a Sonifier 450 (Branson) and stored in aliquots at -80 °C. Triton X-100 soluble Aβ was extracted by mixing 50 μl 2 % Triton X-100 with 50 μl homogenate, incubating for 15 min on ice with vortexing, followed by ultracentrifugation at 100000xg for 15 min. The clear supernatant was diluted to a final forebrain dilution of 1:100 and used for analysis. For the extraction of insoluble amyloid peptides, 50 μl forebrain homogenate was mixed with 117 μl of 100 % formic acid and stored on ice for 15 min with vortexing. Samples were neutralized with 950 μl 1 M Tris base, containing Complete protease inhibitor cocktail (Roche, Basle, Switzerland) and stored overnight at room temperature. The supernatant after 15 min centrifugation at 14000 rpm was used for analysis.
Aβ38, 40 and 42 were determined using the electro-chemiluminescence immuno assay kits from Meso Scale Discovery (Rockville, MD, USA) in either singlet or triplex format. Samples and standards were prepared according to the manufactures protocols. The kit based on the antibody 4G8 was used for rat forebrain and CSF samples, and kits based on 6E10 were used for dog CSF or plasma and APP51/16 brain and CSF samples. Soluble APPα and sAPPβ from APP51/16 mice were determined from the 100000xg supernatant and analyzed with Meso Scale Discovery commercial kits. C-terminal fragments C83 and C99 were determined from Western blots. Forebrain homogenates dephosphorylated with lambda protein phosphatase as described and run on a 10 % Tris-bicine gel with 8 M urea. After transfer to Immobilon P membranes (Bio-Rad Bedford MA USA), bands were probed with APP C8 antibody (recognizing the C-terminus of APP) and detected with goat anti-mouse IgG Fab fragment AlexaFluor680 (Invitrogen). The same gel was used to visualize Aβ1-38, 1-40, and 1-42 using the N-terminal antibody beta1 and goat anti rabbit IgG IRdye 800CW (Odyssey). Full-length human APP was detected using an in house immunoassay based on the MSD ECL system as described.

[7] = approximate area under the effect curve, 0, 4, 24 h after last dose

## Cc1cc(C#N)cnc1C(=O)Nc1ccc(F)c([C@]2(C)CO[C@@](C)(C(F)(F)F)C(N)=N2)c1 [NB-360]
[1]
  logP: 3.7
[2]
  concentration at 168 h: 23 ± 31 nM
[3]
  pKa: 7.1
[4]; 2 μmol/kg i.v.
  Vol. of Distribution: 0.9 L/kg
[4]; Beagle, blood, iv, 2 umol/kg
  clearance: 0.4 mL/min/kg
  half-life: 36.2 h
[4]; Beagle, blood, po, 2 umol/kg
  bioavailability: 62%
[5]
  IC50: 33 nM
[6]; 4 h after the dose
  CSF Aβ40 reduction: > 90%
  CSF Aβ42 reduction: > 90%
[6]; 24 h
  CSF Aβ40 reduction: about 60%
  CSF Aβ42 reduction: about 60%
[6]; 4 h after the last dose
  C99 reduction in Triton TX-100 forebrain extract: about 80%
  sAPPβ reduction in Triton TX-100 forebrain extract: about 80%
[6]; 24 h after the last dose
  C99 reduction in Triton TX-100 forebrain extract: 57%
  sAPPβ reduction in Triton TX-100 forebrain extract: 70%
[6]; NB-360 group, Mean ± SEM, N 14
  Formic-acid extracted Aβ 1-38 in forebrain homogenate: 77.0 ± 24.9 pmol/g forebrain
  Formic-acid extracted Aβ 1-40 in forebrain homogenate: 197.3 ± 43.4 pmol/g forebrain
  Formic-acid extracted Aβ 1-42 in forebrain homogenate: 106.6 ± 20.9 pmol/g forebrain
[6]; approximate area under the effect curve after last dose
  Plasma Aβ40 reduction, AUEC24h: 70%
[6]; [7]
  CSF Aβ40 reduction, AUEC24h: approximately 75%
  CSF Aβ42 reduction, AUEC24h: approximately 75%
  CSF sAPPβ reduction, AUEC24h: approximately 75%
[6]; forebrain extract, 4 and 24 h
  C83 average increase above vehicle control: 50%
  sAPPα average increase above vehicle control: 50%
[6]; formic-acid extract
  Aβ 1-38, NB-360 group, change vs baseline: -33.5 % p = 0.39
  Aβ 1-38, NB-360 group, change vs vehicle: -68.0 % p = 0.015
  Aβ 1-40, NB-360 group, change vs baseline: -16.1 % p = 0.52
  Aβ 1-40, NB-360 group, change vs vehicle: -64.5 % p = 0.003
  Aβ 1-42, NB-360 group, change vs vehicle: -69.3 % p = 0.0006
[6]; irrespective of the deposit size
  number of Aβ deposits (large plaques, small plaques, granules) per 3 cortical sections: indistinguishable from baseline
[6]; mean ± SEM, p = 0.093 vs baseline, p <0.0001 vs vehicle
  total area of cortical region of interest stained positively for NT12: 0.209 ± 0.054%
[6]; relative to vehicle-treated mice
  number of Iba-1 positive cell clusters in the cortex: substantially lower
